Test results: ChEMBL document CHEMBL1201862, “PubChem BioAssay data set” (2004)
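Cultured in 96-well plates, cells were exposed to test compound for 48 hours across five concentrations. The concentration for 50% growth inhibition is given as GI50.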 Activity calls are given as the source filed them. Rule as the data show it: active = GI50 up to about 1.1 µM and inactive = higher.

Experiments:
Test in all cases: DTP human tumour cell line panel, 48 h
[1] = system: HL-60
[2] = system: EKVX
[3] = system: RPMI-8226
[4] = system: NCI-H522
[5] = system: HCT-15
[6] = system: A549
[7] = system: MDA-N
[8] = system: COLO 205
[9] = system: ACHN
[10] = system: SN12C
[11] = system: HCC 2998
[12] = system: SK-OV-3
[13] = system: OVCAR-4
[14] = system: SK-MEL-28
[15] = system: SK-MEL-5
[16] = system: SF-268
[17] = system: IGROV-1
[18] = system: DMS-273
[19] = system: BT-549
[20] = system: HT-29

| SMILES | GI50 [1] | GI50 [2] | GI50 [3] | GI50 [4] | GI50 [5] [µM] | GI50 [6] | GI50 [7] | GI50 [8] | GI50 [9] | GI50 [10] | GI50 [11] | GI50 [12] | GI50 [13] | GI50 [14] | GI50 [15] | GI50 [16] | GI50 [17] | GI50 [18] | GI50 [19] | GI50 [20] |
| --- | --- | --- | --- | --- | --- | --- | --- | --- | --- | --- | --- | --- | --- | --- | --- | --- | --- | --- | --- | --- |
| CC(=O)OCC1C(=O)OCC1C(=O)N1Cc2cc3ccccc3nc2C1 (configuration not stated) | 0.794 µM (active) | 8.05 µM (inactive) | 1.37 µM (inactive) | 0.714 µM (active) | 1.95 | 15.3 µM (inactive) | 2.75 µM (inactive) | 0.653 µM (active) | 1.36 µM (inactive) | 5.27 µM (inactive) | 10.4 µM (inactive) | 16.7 µM (inactive) | 1.65 µM (inactive) | 2.55 µM (inactive) | 10.2 µM (inactive) | 7.41 µM (inactive) | 10.1 µM (inactive) | 5.09 µM (inactive) | 2.17 µM (inactive) | 2.78 µM (inactive) |
| CCOC(=O)/C(=C\c1ccc(N(CCC#N)CCC#N)cc1)NC(=O)c1cc([N+](=O)[O-])ccc1Cl | > 100 µM (inactive) | > 100 µM (inactive) | 56.6 µM (inactive) | 56.1 µM (inactive) | > 100 | > 100 µM (inactive) | – | > 100 µM (inactive) | > 100 µM (inactive) | > 100 µM (inactive) | > 100 µM (inactive) | > 100 µM (inactive) | > 100 µM (inactive) | > 100 µM (inactive) | > 100 µM (inactive) | > 100 µM (inactive) | > 100 µM (inactive) | > 100 µM (inactive) | – | > 100 µM (inactive) |
| COc1cc(/C=C/c2ccc(OC)c(OC)c2OC)cc(OC)c1OC | 23.1 µM (inactive) | 21.5 µM (inactive) | 14.1 µM (inactive) | 15.3 µM (inactive) | 18.5 | 27.2 µM (inactive) | – | 17.3 µM (inactive) | 25.1 µM (inactive) | 21.4 µM (inactive) | 13.2 µM (inactive) | 24.7 µM (inactive) | 25.4 µM (inactive) | 15.3 µM (inactive) | 14.7 µM (inactive) | 20.1 µM (inactive) | 28.2 µM (inactive) | 16.4 µM (inactive) | – | 20.8 µM (inactive) |
| Cc1cc2c([nH]c3ccccc32)c2c1OC(C)(C)C1C3CC(C)(C)Oc4c(C)cc5c6ccccc6n(c5c43)C21 (configuration not stated) | > 100 µM (inactive) | > 100 µM (inactive) | > 100 µM (inactive) | > 100 µM (inactive) | > 100 | > 100 µM (inactive) | – | > 100 µM (inactive) | > 100 µM (inactive) | > 100 µM (inactive) | > 100 µM (inactive) | > 100 µM (inactive) | > 100 µM (inactive) | > 100 µM (inactive) | > 100 µM (inactive) | > 100 µM (inactive) | > 100 µM (inactive) | > 100 µM (inactive) | – | > 100 µM (inactive) |
| Cc1cc2c(c3nocc13)C(=O)c1ccccc1C2=O | 98.2 µM (inactive) | > 100 µM (inactive) | > 100 µM (inactive) | > 100 µM (inactive) | > 100 | > 100 µM (inactive) | – | > 100 µM (inactive) | > 100 µM (inactive) | > 100 µM (inactive) | > 100 µM (inactive) | > 100 µM (inactive) | > 100 µM (inactive) | > 100 µM (inactive) | > 100 µM (inactive) | > 100 µM (inactive) | > 100 µM (inactive) | > 100 µM (inactive) | – | > 100 µM (inactive) |
| O=C(COC(=O)c1cccc2c(=O)c3ccccc3[nH]c12)Nc1ccccc1 | 16.7 µM (inactive) | > 100 µM (inactive) | 23.7 µM (inactive) | 25.3 µM (inactive) | – | 50.8 µM (inactive) | – | 21.7 µM (inactive) | 41.8 µM (inactive) | > 100 µM (inactive) | > 100 µM (inactive) | > 100 µM (inactive) | 45.6 µM (inactive) | 43.5 µM (inactive) | 19.8 µM (inactive) | > 100 µM (inactive) | > 100 µM (inactive) | 58.1 µM (inactive) | – | 31.8 µM (inactive) |
| Cc1ccc(NC(=O)CC2C(=O)Nc3ccccc3[S+]2[O-])c(C)c1 (configuration not stated) | 2.86 µM (inactive) | > 61.7 µM (inactive) | 12.1 µM (inactive) | 6.89 µM (inactive) | 4.94 | 16.1 µM (inactive) | – | 7.52 µM (inactive) | 21 µM (inactive) | 30.5 µM (inactive) | 20 µM (inactive) | 17.6 µM (inactive) | 17.3 µM (inactive) | 15.8 µM (inactive) | 4.11 µM (inactive) | 24.5 µM (inactive) | 12.8 µM (inactive) | 6.15 µM (inactive) | – | 4.35 µM (inactive) |
| N/N=c1\c2ccccc2c2cc3c(cc12)/c(=N/N)c1ccccc13 | > 100 µM (inactive) | > 100 µM (inactive) | > 100 µM (inactive) | > 100 µM (inactive) | > 100 | > 100 µM (inactive) | – | > 100 µM (inactive) | > 100 µM (inactive) | > 100 µM (inactive) | > 100 µM (inactive) | > 100 µM (inactive) | > 100 µM (inactive) | > 100 µM (inactive) | > 100 µM (inactive) | > 100 µM (inactive) | > 100 µM (inactive) | > 100 µM (inactive) | – | > 100 µM (inactive) |
| COc1ccc(C2CC(c3cc(C)ccc3O)=NC(N)=N2)cc1 (configuration not stated) | > 100 µM (inactive) | > 100 µM (inactive) | > 100 µM (inactive) | > 100 µM (inactive) | > 100 | > 100 µM (inactive) | – | > 100 µM (inactive) | > 100 µM (inactive) | > 100 µM (inactive) | > 100 µM (inactive) | > 100 µM (inactive) | > 100 µM (inactive) | > 100 µM (inactive) | – | > 100 µM (inactive) | > 100 µM (inactive) | > 100 µM (inactive) | – | > 100 µM (inactive) |
